Results taken from US5405760A, “Process for producing recombinant McrBC endonuclease and cleavage of methylated DNA” (New England Biolabs, Inc., priority 1992, dated 1995).
Where two headings read alike, the source gives them in different places.

How the values were obtained:
[1] = Properties of the McrBC cleavage reaction (pH, ratio of components); type: biochemical; conditions: higher or lower ratios reduce cleavage activity
Text: (a) pH optimum: Activity is detectable when the pH of the reaction is lowered to about 5.8.
Higher or lower ratios reduce cleavage activity.

McrBC = target: T1, McrBC (Escherichia coli, UniProt P15005); experiment: McrBC cleavage of pBR322.AluI with titration of nucleotides; type: biochemical; conditions: for support of cleavage of the substrate by nucleotide: nucleotides tested at 1 mM; for inhibition of McrBC reaction: in the presence of GTP (0.5 mM), analogue 5.0 to 0.04 mM
T1 construct: made in house; host or cells: Escherichia coli BL21(DE3)/pER273 (McrBL) and BL21(DE3)/pER276 (McrC)
T1 sequence (P15005 1-459): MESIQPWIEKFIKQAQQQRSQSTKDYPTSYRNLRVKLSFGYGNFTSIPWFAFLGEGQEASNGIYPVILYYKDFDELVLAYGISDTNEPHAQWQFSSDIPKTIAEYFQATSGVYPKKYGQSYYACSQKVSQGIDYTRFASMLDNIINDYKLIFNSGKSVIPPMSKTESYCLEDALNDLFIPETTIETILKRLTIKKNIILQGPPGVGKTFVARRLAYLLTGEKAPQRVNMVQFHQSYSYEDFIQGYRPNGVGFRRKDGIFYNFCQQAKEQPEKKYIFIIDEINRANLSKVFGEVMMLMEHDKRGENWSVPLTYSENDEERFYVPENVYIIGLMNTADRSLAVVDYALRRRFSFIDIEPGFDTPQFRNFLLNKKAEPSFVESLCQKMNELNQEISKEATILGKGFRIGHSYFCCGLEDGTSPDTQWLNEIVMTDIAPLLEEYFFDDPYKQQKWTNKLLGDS
Protocol: The optimal buffer composition for both components of McrBC tested was 10 mM Tris-Cl, 10 mM magnesium chloride, 1 mM GTP (pH 7.5 at 25° C.).
McrBC activity depends on the presence of GTP. […] McrBL Fraction IV and McrC Fraction Va (EXAMPLE I), were used, such that each reaction in each series contained 8 pmol McrBL, 8 pmol of McrC (combined activity on the same day of 5 units) and 0.07 pmol of pBR322.AluI in the presence of decreasing concentrations of nucleotides. Mixtures were made up without McrBL and without nucleotide; nucleotide was added to the first tube in the series; the samples were serially diluted in a manner similar to that described in EXAMPLE I and II; and reactions were begun by addition of McrBL and transfer to 37° C.

[2] = test system: McrBC (chromosomal wild-type operon) (Escherichia coli K-12); experiment: cell_activity; conditions: methylated by M.HaeII in vivo; in vivo restriction; abolished by McrBS plasmid
[3] = pH 7.5, read-out: relative activity

McrB: large polypeptide product of the mcrB gene, component of McrBC
Optimal ratio of McrB to McrC [1]: between one and ten molecules of McrB per molecule of McrC

Nc1nc2c(ncn2[C@@H]2O[C@H](COP(=O)(O)OP(=O)(O)OP(=O)(O)O)[C@@H](O)[C@H]2O)c(=O)[nH]1 [GTP]
activity at 620 µM (McrBC; 0.62 mM GTP, 10 mM Tris-Cl, 10 mM magnesium chloride, pH 7.5, read-out: relative activity): 100%
support of the reaction by GTP alone (McrBC; 2.5 mM GTP): supported the reaction normally
effect of high levels of GTP on the enzyme (McrBC; 5 mM GTP): inhibit the enzyme
GTP concentration at which cleavage can be detected (McrBC; lane h, lowest concentration): 40 nM
activity at 40 µM (McrBC; pH 7.5, 0.04 mM GTP, same buffer, read-out: relative activity): ≤ 10%
activity at 310 µM (McrBC; pH 7.5, 0.31 mM GTP, same buffer, read-out: relative activity): 50%

Nc1nc2c(ncn2[C@@H]2O[C@H](COP(=O)(O)OP(=O)(O)O)[C@@H](O)[C@H]2O)c(=O)[nH]1 [GDP]
support of cleavage of the substrate by nucleotide (McrBC): Neither GDP or GMP supported cleavage

Nc1ncnc2c1ncn2[C@@H]1O[C@H](COP(=O)(O)OP(=O)(O)OP(=O)(O)O)[C@@H](O)[C@H]1O [ATP]
concentration at which inhibition of McrBC activity began (McrBC; 0.5 mM GTP (equimolar)): 0.5 mM
inhibition of McrBC reaction (McrBC): inhibited the reaction
activity at 620 µM (McrBC; [3]): 25%
activity at 1250 µM (McrBC; [3]): < 10%
activity at 2500 µM (McrBC; [3]): < 1%

Nc1nc2c(ncn2[C@@H]2O[C@H](COP(=O)(O)OP(=O)(O)NP(=O)(O)O)[C@@H](O)[C@H]2O)c(=O)[nH]1 [GMP-PNP]
inhibition of the GTP-supported reaction (McrBC; 5 mM analogue, 0.5 mM GTP): partial inhibition
activity at 1250 µM (McrBC; pH 7.5, 0.5 mM GTP and 1.25 mM GMP-PNP, read-out: relative activity): 50%
activity at 5000 µM (McrBC; pH 7.5, 0.5 mM GTP and 5 mM GMP-PNP, read-out: relative activity): < 10%

Nc1ncnc2c1ncn2[C@@H]1O[C@H](COP(=O)(O)OP(=O)(O)OP(O)(O)=S)[C@@H](O)[C@H]1O [ATP-gamma-S]
inhibition of McrBC reaction (McrBC): did not inhibit the enzyme

Nc1ncnc2c1ncn2[C@@H]1O[C@H](COP(=O)(O)OP(=O)(O)NP(=O)(O)O)[C@@H](O)[C@H]1O [AMP-PNP]
inhibition of McrBC reaction (McrBC): did not inhibit McrBC
inhibition of McrBC at high concentrations (McrBC; near 10 mM): partial inhibition

phage lambda modified by M.HaeII
activity (fold reduction in plaques) [2]: 33

Nc1nc2c(ncn2[C@@H]2O[C@H](COP(=O)(O)OP(=O)(O)OP(O)(O)=S)[C@@H](O)[C@H]2O)c(=O)[nH]1 [GTP-gamma-S]
relative activity (McrBC; 0.5 mM GTP and as little as 0.04 mM GTP-gamma-S): no activity was detectable
inhibition of McrBC reaction (McrBC): completely inhibit

Nc1nc2c(ncn2[C@@H]2O[C@H](COP(=O)(O)O)[C@@H](O)[C@H]2O)c(=O)[nH]1 [GMP]
support of cleavage of the substrate by nucleotide (McrBC): Neither GDP or GMP supported cleavage

B1: McrC: component of McrBC endonuclease, product of the mcrC gene (protein, UniProt P15006 1-348, looked up)
Type IV methyl-directed …: MEQPVIPVRNIYYMLTYAWGYLQEIKQANLEAIPGNNLLDILGYVLNKGVLQLSRRGLELDYNPNTEIIPGIKGRIEFAKTIRGFHLNHGKTVSTFDMLNEDTLANRIIKSTLAILIKHEKLNSTIRDEARSLYRKLPGISTLHLTPQHFSYLNGGKNTRYYKFVISVCKFIVNNSIPGQNKGHYRFYDFERNEKEMSLLYQKFLYEFCRRELTSANTTRSYLKWDASSISDQSLNLLPRMETDITIRSSEKILIVDAKYYKSIFSRRMGTEKFHSQNLYQLMNYLWSLKPENGENIGGLLIYPHVDTAVKHRYKINGFDIGLCTVNLGQEWPCIHQELLDIFDEYLK
Optimal ratio of McrC to sites [1]: between one and six molecules of McrC per cleavable site
